{"source": "paper PMC4678037", "about": "(Neuropharmacology, 2015)", "key": {"[1]": {"system": "body weight", "assay": "Body weight loss in mice on ad lib. 'cafeteria' diet, 3 wks repeated p.o.", "assay_type": "in vivo, mouse", "settings": "approximate, vehicle-corrected, AZ data on file"}, "[2]": {"system": "CB1R", "assay": "Change in [11C]SD5024 binding in pons after CB1R antagonists", "assay_type": "in vivo, cynomolgus monkeys (Macaca fascicularis)"}, "[3]": {"target": "mCB1R (Mus musculus, UniProt P47746)", "sequence (P47746 whole entry)": "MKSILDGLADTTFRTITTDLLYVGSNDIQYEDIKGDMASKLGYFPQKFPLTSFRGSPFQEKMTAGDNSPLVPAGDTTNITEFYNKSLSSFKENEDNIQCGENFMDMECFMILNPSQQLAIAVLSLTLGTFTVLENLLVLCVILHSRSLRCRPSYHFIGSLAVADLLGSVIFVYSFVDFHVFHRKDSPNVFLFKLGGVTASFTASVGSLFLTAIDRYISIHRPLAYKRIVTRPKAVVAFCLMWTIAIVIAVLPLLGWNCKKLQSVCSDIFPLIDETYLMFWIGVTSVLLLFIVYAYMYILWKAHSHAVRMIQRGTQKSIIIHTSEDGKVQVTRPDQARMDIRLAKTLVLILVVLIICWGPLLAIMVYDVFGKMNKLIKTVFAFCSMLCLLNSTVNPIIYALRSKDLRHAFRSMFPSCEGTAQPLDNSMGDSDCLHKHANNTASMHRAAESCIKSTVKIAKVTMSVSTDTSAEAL", "assay_type": "biochemical"}, "[4]": {"system": "CB1R", "assay": "PET CB1R occupancy with [11C]SD5024 in striatum"}, "[5]": {"target": "hCB1R (Homo sapiens, UniProt P21554)", "sequence (P21554 whole entry)": "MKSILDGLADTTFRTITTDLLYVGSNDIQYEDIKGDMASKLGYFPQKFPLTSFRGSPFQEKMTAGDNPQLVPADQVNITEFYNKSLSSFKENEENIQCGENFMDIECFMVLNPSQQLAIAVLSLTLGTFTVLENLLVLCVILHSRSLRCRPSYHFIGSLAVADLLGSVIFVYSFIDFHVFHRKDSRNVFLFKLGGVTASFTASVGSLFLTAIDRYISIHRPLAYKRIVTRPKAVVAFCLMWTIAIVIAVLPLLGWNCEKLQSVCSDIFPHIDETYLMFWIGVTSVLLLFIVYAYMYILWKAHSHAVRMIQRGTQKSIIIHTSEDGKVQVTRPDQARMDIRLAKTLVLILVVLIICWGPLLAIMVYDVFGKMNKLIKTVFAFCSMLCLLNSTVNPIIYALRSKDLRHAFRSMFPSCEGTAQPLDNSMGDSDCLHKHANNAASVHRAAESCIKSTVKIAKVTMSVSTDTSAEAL", "assay_type": "biochemical"}, "[6]": {"settings": "cited from earlier work"}, "[7]": {"system": "body weight / suicidality", "settings": "ref FDA, 2007, cited from earlier work"}, "[8]": {"system": "CB1R", "settings": "across species, ref Fong et al., 2007, Burns et al., Addy et al., 2008a, Proietto et al., 2010, Aronne et al., Hadcock et al.; cited from earlier work"}, "[9]": {"system": "CB1R", "settings": "binding to CB1R; ref Donohue et al., 2008a,b; cited from earlier work"}, "[10]": {"assay": "Whole brain uptake of radioligand", "assay_type": "in vivo, cynomolgus monkeys (Macaca fascicularis)", "settings": "i.v. bolus of radioligand, 42 PET measurements"}, "[11]": {"system": "body weight", "assay": "10-day Phase I Multiple Ascending Dose", "assay_type": "in vivo, human", "settings": "10-day Phase I MAD; doses giving plasma concentrations comparable to ~20–30% brain CB1R occupancy; AZ data on file"}}, "note": "Where two headings read alike, the source gives them in different places. Marks after values point to notes of the source that are not given here.", "data": [{"smiles": "Cc1c2c(n(-c3ccc(F)cc3Cl)c1-c1ccc(OS(=O)(=O)CCC(F)(F)F)cc1)CCN(N1CCCCC1)C2=O", "note": "[AZ compound 3, 4-[1-(2-Chloro-4-fluorophenyl)-3-methyl-4-oxo-5-piperidin-1-yl-4,5,6,7-tetrahydro-1H-pyrrolo[3,2-c]pyridin-2-yl]phenyl 3,3,3-trifluoropropane-1-sulfonate]", "values": [{"measurement": "Maximal in vivo body weight loss (% of baseline)", "setting": "[1]", "result": "~30% of baseline"}, {"measurement": "AUC50–122min difference compared to baseline", "setting": "[2]; 0.6 mg/kg (highest dose)", "result": "−23", "unit": "%"}, {"measurement": "Ki", "setting": "[3]", "result": "0.03 ± 0.002", "unit": "nM"}, {"measurement": "Receptor Occupancy", "setting": "[4]; striatum, 0.02 mg/kg i.v., monkey 4, plasma 0.001 μmol/L, 50–122 min", "result": "−18", "unit": "%"}, {"measurement": "Receptor Occupancy", "setting": "[4]; striatum, 0.06 mg/kg i.v., monkey 3, plasma […], 50–122 min", "result": 0.7, "unit": "%"}, {"measurement": "Receptor Occupancy", "setting": "[4]; striatum, 0.06 mg/kg i.v., monkey 4, plasma 0.020 μmol/L, 50–122 min", "result": "−12", "unit": "%"}, {"measurement": "Receptor Occupancy", "setting": "[4]; striatum, 0.2 mg/kg i.v., monkey 4, plasma 0.084 μmol/L, 50–122 min", "result": 14, "unit": "%"}, {"measurement": "Receptor Occupancy", "setting": "[4]; striatum, 0.4 mg/kg i.v., monkey 3, plasma 0.245 μmol/L, 50–122 min", "result": 59, "unit": "%"}, {"measurement": "Receptor Occupancy", "setting": "[4]; striatum, 0.6 mg/kg i.v., monkey 4, plasma 0.275 μmol/L, 50–122 min", "result": 82, "unit": "%"}, {"measurement": "Ki", "setting": "[5]", "result": "0.24 ± 0.01", "unit": "nM"}]}, {"smiles": "Cc1c(C(=O)NN2CCCCC2)nn(-c2ccc(Cl)cc2Cl)c1-c1ccc(Cl)cc1", "note": "[Rimonabant, 5-(4-Chlorophenyl)-1-(2,4-dichloro-phenyl)-4-methyl-N-(piperidin-1-yl)-1H-pyrazole-3-carboxamide]", "values": [{"measurement": "Protein bound", "setting": "[6]; ref FDA, 2007", "result": "> 99.9", "unit": "%"}, {"measurement": "Maximal in vivo body weight loss (% of baseline)", "setting": "[1]", "result": "~20% of baseline"}, {"measurement": "Suicidality in the clinic", "setting": "[7]; 5 mg dose vs. selected 20 mg dose", "result": "absence of a detectable rise in suicidality"}, {"measurement": "Weight loss in the clinic", "setting": "[7]; 5 mg dose", "result": "significant (albeit modest) weight loss"}]}, {"smiles": "Cc1c2c(n(-c3ccc(Cl)cc3Cl)c1-c1ccc(OS(=O)(=O)CCC(F)(F)F)cc1)CCN(N1CCCCC1)C2=O", "note": "[AZ compound 2, 4-[1-(2,4-Dichlorophenyl)-3-methyl-4-oxo-5-piperidin-1-yl-4,5,6,7-tetrahydro-1H-pyrrolo[3,2-c]pyridin-2-yl]phenyl 3,3,3-trifluoropropane-1-sulfonate]", "values": [{"measurement": "Maximal in vivo body weight loss (% of baseline)", "setting": "[1]", "result": "~30% of baseline"}, {"measurement": "AUC50–122min difference compared to baseline", "setting": "[2]; 2.0 mg/kg (highest dose)", "result": "−23", "unit": "%"}, {"measurement": "Ki", "setting": "[3]", "result": "0.02 ± 0.001", "unit": "nM"}, {"measurement": "Receptor Occupancy", "setting": "[4]; striatum, 0.06 mg/kg i.v., monkey 2, plasma 0.023 μmol/L, 50–122 min", "result": 0.6, "unit": "%"}, {"measurement": "Receptor Occupancy", "setting": "[4]; striatum, 0.2 mg/kg i.v., monkey 1, plasma 0.050 μmol/L, 50–122 min", "result": "−10", "unit": "%"}, {"measurement": "Receptor Occupancy", "setting": "[4]; striatum, 0.2 mg/kg i.v., monkey 4, plasma 0.057 μmol/L, 50–122 min", "result": 9.2, "unit": "%"}, {"measurement": "Receptor Occupancy", "setting": "[4]; striatum, 0.25 mg/kg i.v., monkey 5, plasma 0.083 μmol/L, 50–122 min", "result": 1.4, "unit": "%"}, {"measurement": "Receptor Occupancy", "setting": "[4]; striatum, 0.3 mg/kg i.v., monkey 2, plasma 0.143 μmol/L, 50–122 min", "result": 35, "unit": "%"}, {"measurement": "Receptor Occupancy", "setting": "[4]; striatum, 0.6 mg/kg i.v., monkey 5, plasma 0.252 μmol/L, 50–122 min", "result": 64, "unit": "%"}, {"measurement": "Receptor Occupancy", "setting": "[4]; striatum, 1.0 mg/kg i.v., monkey 4, plasma 0.401 μmol/L, 50–122 min", "result": 69, "unit": "%"}, {"measurement": "Receptor Occupancy", "setting": "[4]; striatum, 2.0 mg/kg i.v., monkey 1, plasma […], 50–122 min", "result": 78, "unit": "%"}, {"measurement": "Ki", "setting": "[5]", "result": "0.2 ± 0.01", "unit": "nM"}]}, {"smiles": "C[C@H](NC(=O)C(C)(C)Oc1ccc(C(F)(F)F)cn1)[C@@H](Cc1ccc(Cl)cc1)c1cccc(C#N)c1", "note": "[Taranabant, N-[(2S,3S)-4-(4-Chlorophenyl)-3-(3-cyanophenyl)-2-butanyl]-2-methyl-2-{[5-(trifluoromethyl)-2-pyridinyl]oxy}propanamide, reference compound]", "values": [{"measurement": "Protein bound", "setting": "[6]; ref Li et al., 2010", "result": "> 98", "unit": "%"}, {"measurement": "Maximal in vivo body weight loss (% of baseline)", "setting": "[1]", "result": "~30% of baseline"}, {"measurement": "AUC50–122min difference compared to baseline", "setting": "[2]; 0.2 mg/kg (highest dose)", "result": "−29", "unit": "%"}, {"measurement": "Ki", "setting": "[3]", "result": "0.01 ± 0.001", "unit": "nM"}, {"measurement": "CB1R occupancy at exposures corresponding to those needed for optimal clinical efficacy", "setting": "[4]; non-human primates, typically around", "result": "20–30%"}, {"measurement": "Receptor Occupancy", "setting": "[4]; striatum, 0.005 mg/kg i.v., monkey 7, plasma 0.002 μmol/L, 50–122 min", "result": 1.7, "unit": "%"}, {"measurement": "Receptor Occupancy", "setting": "[4]; striatum, 0.015 mg/kg i.v., monkey 7, plasma 0.010 μmol/L, 50–122 min", "result": "−3.9", "unit": "%"}, {"measurement": "Receptor Occupancy", "setting": "[4]; striatum, 0.05 mg/kg i.v., monkey 1, plasma 0.015 μmol/L, 50–122 min", "result": 35, "unit": "%"}, {"measurement": "Receptor Occupancy", "setting": "[4]; striatum, 0.2 mg/kg i.v., monkey 1, plasma 0.093 μmol/L, 50–122 min", "result": 94, "unit": "%"}, {"measurement": "Plasma concentration corresponding to 20–30% CB1R occupancy", "setting": "[4]; striatum, present study", "result": "0.01 to 0.02", "unit": "µmol/L"}, {"measurement": "CB1R occupancy that may be sufficient for appetite- and body weight-reducing efficacy", "setting": "[8]", "result": "10 to 40", "unit": "%"}]}, {"smiles": "N#Cc1ccc(S(=O)(=O)N=C(N)N2CC(c3ccccc3)C(c3ccc(Cl)cc3)=N2)cc1", "note": "(stereo not drawn) [[^11C]SD5024]", "values": [{"measurement": "IC50", "setting": "[9]", "result": 2.8, "unit": "nM"}, {"measurement": "Ki", "setting": "[9]", "result": 0.5, "unit": "nM"}, {"measurement": "Peak radioactivity in brain (range)", "setting": "[10]", "result": "2.6 to 4.2", "unit": "% ID"}]}, {"smiles": "Cc1c(C(=O)NN2CCCCC2)nc(-c2ccc(Cl)cc2Cl)n1-c1ccc(OS(=O)(=O)CCC(F)(F)F)cc1", "note": "[AZ compound 1, 4-[2-(2,4-Dichlorophenyl)-5-methyl-4-(piperidin-1-ylcarbamoyl)-1H-imidazol-1-yl]phenyl 3,3,3-trifluoropropane-1-sulfonate]", "values": [{"measurement": "Maximal in vivo body weight loss (% of baseline)", "setting": "[1]", "result": "~23–25% of baseline"}, {"measurement": "AUC50–122min difference compared to baseline", "setting": "[2]; 6.0 mg/kg (highest dose)", "result": "−20", "unit": "%"}, {"measurement": "Ki", "setting": "[3]", "result": "0.03 ± 0.002", "unit": "nM"}, {"measurement": "Receptor Occupancy", "setting": "[4]; striatum, 0.03 mg/kg i.v., monkey 1, plasma 0 μmol/L, data for 50–93 min", "result": "0.4 ^* %"}, {"measurement": "Receptor Occupancy", "setting": "[4]; striatum, 0.3 mg/kg i.v., monkey 1, plasma 0.038 μmol/L, 50–122 min", "result": 35, "unit": "%"}, {"measurement": "Receptor Occupancy", "setting": "[4]; striatum, 0.3 mg/kg i.v., monkey 2, plasma 0.055 μmol/L, data for 50–93 min", "result": "23 ^* %"}, {"measurement": "Receptor Occupancy", "setting": "[4]; striatum, 1.0 mg/kg i.v., monkey 2, plasma 0.154 μmol/L, 50–122 min", "result": 73, "unit": "%"}, {"measurement": "Receptor Occupancy", "setting": "[4]; striatum, 2.0 mg/kg i.v., monkey 3, plasma 0.999 μmol/L, 50–122 min", "result": 88, "unit": "%"}, {"measurement": "Receptor Occupancy", "setting": "[4]; striatum, 6.0 mg/kg i.v., monkey 3, plasma 2.220 μmol/L, 50–122 min", "result": 99, "unit": "%"}, {"measurement": "Effect on body weight", "setting": "[11]", "result": "tended to reduce body weight"}, {"measurement": "Ki", "setting": "[5]", "result": "0.19 ± 0.01", "unit": "nM"}]}]}
